From patent US9095138B2, “Isoxazoline insecticides” (E.I. du Pont de Nemours and Company, priority 2007, dated 2015)

Columns and labels:
[1] = test system: diamondback moth (Plutella xylostella); test: Test A: control of diamondback moth on radish plant, foliar spray; type: in vivo; conditions: sprayed at 50 ppm; neonate larvae on radish; assessed after 6 days; replicated three times
Description: For evaluating control of diamondback moth (Plutella xylostella) the test unit consisted of a small open container with a 12-14-day-old radish plant inside. This was pre-infested with about 50 neonate larvae that were dispensed into the test unit via corn-cob grits using a bazooka inoculator. The larvae moved onto the test plant after being dispensed into the test unit.
(§1) Test compounds were formulated using a solution containing 10% acetone, 90% water and 300 ppm X-77™ Spreader Lo-Foam Formula non-ionic surfactant containing alkylarylpolyoxyethylene, free fatty acids, glycols and isopropanol (Loveland Industries, Inc. Greeley, Colo., USA). The formulated compounds were applied in 1 mL of liquid through a SUJ2 atomizer nozzle with ⅛ JJ custom body (Spraying Systems Co. Wheaton, Ill., USA) positioned 1.27 cm (0.5 inches) above the top of each test unit. All experimental compounds in these tests were sprayed at 50 ppm, and the test was replicated three times. After spraying of the formulated test compound, each test unit was allowed to dry for 1 h and then a black, screened cap was placed on top. The test units were held for 6 days in a growth chamber at 25° C. and 70% relative humidity. Plant feeding damage was then visually assessed based on foliage consumed and a pest mortality rating was also counted and calculated for each test unit.

[2] = test system: western flower thrips (Frankliniella occidentalis); test: Test E: control of western flower thrips on Soleil bean plant, contact and/or systemic; type: in vivo; conditions: adult thrips, assessed after 6 days, replicated three times
Procedure: as §1
For evaluating control of the western flower thrips (Frankliniella occidentalis) through contact and/or systemic means, the test unit consisted of a small open container with a 5-7 day old Soleil Bean plant inside. Test compounds were formulated and sprayed as described for Test A. All experimental compounds in these tests were sprayed at 250 or 50 ppm as noted, and the test was replicated three times. After spraying, the test units were allowed to dry for 1 hour and then 22-27 adult thrips were added to each unit and then a black, screened cap was placed on top. The test units were held for 6 days at 25° C. and 45-55% relative humidity. A mortality rating was assessed along with a plant damage rating for each test unit.

SMILES | control efficacy (feeding damage or mortality): very good to excellent levels [1] | control efficacy (feeding damage or mortality): very good to excellent levels ([2]; sprayed at 50 ppm) | control efficacy (feeding damage or mortality): very good to excellent levels ([2]; sprayed at 250 ppm)
O=C(NC(C(=O)O)c1ccccc1)c1ccc(C2=NOC(c3cc(Cl)cc(Cl)c3)(C(F)(F)F)C2)c2ccccc12 (mixture of isomers) [Compound 5] | 20% or less feeding damage or 80% or more mortality |  | 
CC(NC(=O)c1ccc(C2=NOC(c3cc(Cl)cc(OC(F)(F)F)c3)(C(F)(F)F)C2)c2ccccc12)C(=O)O (mixture of isomers) [Compound 35] | 20% or less feeding damage or 80% or more mortality |  | 
CC(NC(=O)c1ccc(C2=NOC(c3cc(Cl)cc(OCC(F)(F)F)c3)(C(F)(F)F)C2)c2ccccc12)C(=O)O (mixture of isomers) [Compound 37] | 20% or less feeding damage or 80% or more mortality |  | 
CN(CCCNC(=O)c1ccc(C2=NOC(c3cc(Cl)cc(Cl)c3)(C(F)(F)F)C2)c2ccccc12)C(=O)OC(C)(C)C (racemic) [Compound 3] | 20% or less feeding damage or 80% or more mortality | 20% or less feeding damage or 80% or more mortality | 20% or less feeding damage or 80% or more mortality
CC(C)(NC(=O)c1ccc(C2=NOC(c3cc(Cl)cc(Cl)c3)(C(F)(F)F)C2)c2ccccc12)C(=O)O (racemic) [Compound 6] | 20% or less feeding damage or 80% or more mortality | 20% or less feeding damage or 80% or more mortality | 20% or less feeding damage or 80% or more mortality
O=C(O)CCNC(=O)c1ccc(C2=NOC(c3cc(Cl)cc(Cl)c3)(C(F)(F)F)C2)c2ccccc12 (racemic) [Compound 7] | 20% or less feeding damage or 80% or more mortality |  | 
O=C(O)CNC(=O)c1ccc(C2=NOC(c3cc(Cl)c(Cl)c(Cl)c3)(C(F)(F)F)C2)c2ccccc12 (racemic) [Compound 8] | 20% or less feeding damage or 80% or more mortality |  | 20% or less feeding damage or 80% or more mortality
CS(=O)(=O)NC(=O)c1ccc(C2=NOC(c3cc(Cl)cc(Cl)c3)(C(F)(F)F)C2)c2ccccc12 (racemic) [Compound 10] | 20% or less feeding damage or 80% or more mortality |  | 
O=C(O)CNC(=O)c1ccc(C2=NOC(c3cc(Cl)cc(Cl)c3)(C(F)(F)F)C2)c2ccccc12 (racemic) [Compound 12] | 20% or less feeding damage or 80% or more mortality |  | 
O=C([O-])CNC(=O)c1ccc(C2=NOC(c3cc(Cl)cc(Cl)c3)(C(F)(F)F)C2)c2ccccc12.[Na+] (racemic) [Compound 13] | 20% or less feeding damage or 80% or more mortality |  | 
O=C(O)CNC(=O)c1ccc(C2=NOC(c3cc(Br)cc(C(F)(F)F)c3)(C(F)(F)F)C2)c2ccccc12 (racemic) [Compound 23] | 20% or less feeding damage or 80% or more mortality |  | 
CC(C)=NOC(=O)CNC(=O)c1ccc(C2=NOC(c3cc(C(F)(F)F)cc(C(F)(F)F)c3)(C(F)(F)F)C2)c2ccccc12 (racemic) [Compound 25] | 20% or less feeding damage or 80% or more mortality |  | 
O=C(O)CNC(=O)c1ccc(C2=NOC(c3cc(Cl)cc(C(F)(F)F)c3)(C(F)(F)F)C2)c2ccccc12 (racemic) [Compound 26] | 20% or less feeding damage or 80% or more mortality |  | 20% or less feeding damage or 80% or more mortality
O=C(O)CNC(=O)c1ccc(C2=NOC(c3cc(Cl)cc(OC(F)(F)F)c3)(C(F)(F)F)C2)c2ccccc12 (racemic) [Compound 34] | 20% or less feeding damage or 80% or more mortality |  | 
CC(C)[C@@H](NC(=O)c1ccc(C2=NOC(c3cc(C(F)(F)F)cc(C(F)(F)F)c3)(C(F)(F)F)C2)c2ccccc12)C(=O)O (stereo partly drawn) [Compound 39] | 20% or less feeding damage or 80% or more mortality |  | 
CC(C)(NC(=O)c1ccc(C2=NOC(c3cc(Cl)cc(Cl)c3)(C(F)(F)F)C2)c2ccccc12)C(=O)NCC1CC1 (stereo not drawn) [Compound 43] | 20% or less feeding damage or 80% or more mortality | 20% or less feeding damage or 80% or more mortality | 20% or less feeding damage or 80% or more mortality

SMILES | control efficacy (feeding damage or mortality): very good to excellent levels [1] | control efficacy (feeding damage or mortality): very good to excellent levels ([2]; sprayed at 50 ppm) | control efficacy (feeding damage or mortality): very good to excellent levels ([2]; sprayed at 250 ppm)
O=C(CNC(=O)c1ccc(C2=NOC(c3cc(Cl)cc(Cl)c3)(C(F)(F)F)C2)c2ccccc12)NCc1ccccn1 (stereo not drawn) [Compound 45] | 20% or less feeding damage or 80% or more mortality |  | 20% or less feeding damage or 80% or more mortality
O=C(CNC(=O)c1ccc(C2=NOC(c3cc(Cl)cc(Cl)c3)(C(F)(F)F)C2)c2ccccc12)Nc1ccc(C(F)(F)F)cc1 (stereo not drawn) [Compound 46] | 20% or less feeding damage or 80% or more mortality |  | 
CSCCNC(=O)CNC(=O)c1ccc(C2=NOC(c3cc(Cl)cc(Cl)c3)(C(F)(F)F)C2)c2ccccc12 (stereo not drawn) [Compound 48] | 20% or less feeding damage or 80% or more mortality |  | 20% or less feeding damage or 80% or more mortality
CSCCNC(=O)CNC(=O)c1ccc(C2=NOC(c3cccc(Br)c3)(C(F)(F)F)C2)c2ccccc12 (stereo not drawn) [Compound 57] | 20% or less feeding damage or 80% or more mortality |  | 
O=C(CNC(=O)c1ccc(C2=NOC(c3cccc(OC(F)(F)F)c3)(C(F)(F)F)C2)c2ccccc12)NCc1ccccn1 (stereo not drawn) [Compound 59] | 20% or less feeding damage or 80% or more mortality |  | 
O=C(CNC(=O)c1ccc(C2=NOC(c3cc(F)cc(F)c3)(C(F)(F)F)C2)c2ccccc12)NC1CC1 (stereo not drawn) [Compound 62] | 20% or less feeding damage or 80% or more mortality |  | 
O=C(CNC(=O)c1ccc(C2=NOC(c3cccc(F)c3)(C(F)(F)F)C2)c2ccccc12)NC1CC1 (stereo not drawn) [Compound 63] | 20% or less feeding damage or 80% or more mortality |  | 
O=C(NCC(=O)N1CCCCC1)c1ccc(C2=NOC(c3cc(Cl)cc(Cl)c3)(C(F)(F)F)C2)c2ccccc12 (stereo not drawn) [Compound 89] | 20% or less feeding damage or 80% or more mortality |  | 20% or less feeding damage or 80% or more mortality
CCS(=O)(=O)N1CCN(C(=O)CNC(=O)c2ccc(C3=NOC(c4cccc(C(F)(F)F)c4)(C(F)(F)F)C3)c3ccccc23)CC1 (stereo not drawn) [Compound 92] | 20% or less feeding damage or 80% or more mortality |  | 
COC(=O)[C@@H]1CCCN1C(=O)c1ccc(C2=NOC(c3cc(Cl)cc(Cl)c3)(C(F)(F)F)C2)c2ccccc12 (stereo partly drawn) [Compound 97] | 20% or less feeding damage or 80% or more mortality |  | 
COC(=O)[C@H]1CCCN1C(=O)c1ccc(C2=NOC(c3cc(Cl)cc(Cl)c3)(C(F)(F)F)C2)c2ccccc12 (stereo partly drawn) [Compound 98] | 20% or less feeding damage or 80% or more mortality |  | 20% or less feeding damage or 80% or more mortality
O=C(O)[C@@H]1CCCN1C(=O)c1ccc(C2=NOC(c3cc(Cl)cc(Cl)c3)(C(F)(F)F)C2)c2ccccc12 (stereo partly drawn) [Compound 99] | 20% or less feeding damage or 80% or more mortality |  | 
CNC(=O)[C@@H]1CCCN1C(=O)c1ccc(C2=NOC(c3cc(Cl)cc(Cl)c3)(C(F)(F)F)C2)c2ccccc12 (stereo partly drawn) [Compound 103] | 20% or less feeding damage or 80% or more mortality |  | 
CCNC(=O)[C@@H]1CCCN1C(=O)c1ccc(C2=NOC(c3cc(Cl)cc(Cl)c3)(C(F)(F)F)C2)c2ccccc12 (stereo partly drawn) [Compound 105] | 20% or less feeding damage or 80% or more mortality |  | 
CCNC(=O)[C@H]1CCCN1C(=O)c1ccc(C2=NOC(c3cc(Cl)cc(Cl)c3)(C(F)(F)F)C2)c2ccccc12 (stereo partly drawn) [Compound 106] | 20% or less feeding damage or 80% or more mortality | 20% or less feeding damage or 80% or more mortality | 20% or less feeding damage or 80% or more mortality
